According to US20120142645A1, “NEUROACTIVE STEROID COMPOSITIONS AND METHODS OF USE FOR LOWERING CHOLESTEROL” (priority 2009, published 2012):

Assay: Serum neurosteroid and steroid levels (GC/MS, RIA) at baseline and post-treatment; same trial
Settings: for Serum Androstenedione level / Serum Cortisol level / Serum DHEA level / Serum DHEAS level / Serum PGS (pregnenolone sulfate) level / Serum Total testosterone level / Serum Estradiol level / Serum ALLO (allopregnanolone) level / Serum Free testosterone level / Serum PG (pregnenolone) level / Serum Progesterone level: mean ± SD; for Serum Estradiol level: n = 7; for Serum ALLO (allopregnanolone) level / Serum Free testosterone level / Serum PG (pregnenolone) level / Serum Progesterone level: n = 8; for Serum testosterone, free testosterone, cortisol, DHEA, estradiol, or androstenedione levels: after 8 weeks of pregnenolone vs baseline
Method: Study drug was dispensed every 2 weeks at each study visit at fixed escalating doses as follows: Visit 1: Two-week single-blind placebo lead-in phase, one placebo tablet twice each day (all pts), Visit 2: Randomization to PREG 50 mg twice each day (100 mg/day total) or placebo for 2 wks, Visit 3: PREG 150 mg twice each day (300 mg/day total) or placebo for 2 weeks, Visit 4: PREG 250 mg twice each day (500 mg/day total) or placebo for 2 weeks, Visit 5: PREG 250 mg twice each day (500 mg/day total) or placebo continued for 2 weeks. Patients thus received PREG 500 mg per day in divided doses during the last 4 weeks of the study. Patients also received the Hillside Adverse Events Scale at Visits 2-6, and during staggered telephone check-in calls every two weeks, beginning one week into the single-blind placebo lead-in phase.
Neurosteroid Analyses. […] One mL of serum was extracted three times in ethyl acetate prior to high performance liquid chromatography (HPLC) purification utilizing tetrahydrofuran, ethanol, and hexane in the mobile phase. All samples were injected in duplicate. […] All other serum steroid levels were determined utilizing commercially available radioimmunoassay (RIA) kits according to manufacturer directions (progesterone, cortisol, testosterone, free testosterone, and DHEAS: Diagnostic System Laboratories, Webster, Tex.). DHEA serum levels were determined utilizing a kit from ICN Pharmaceuticals (Costa Mesa, Calif.).
Statistical Analysis. Primary endpoints were changes from baseline at Visit 2 following a two-week placebo lead-in period (all patients) to final assessment at Visit 6 in cognitive symptoms (as assessed by BAGS and MATRICS composite scores) and negative symptoms (as assessed by SANS total scores). […] Student's t-tests were conducted on the change scores between treatment groups in this proof-of-concept study (two-tailed alpha p=0.05 for each statistical test).

[1] = after 8 weeks of pregnenolone, listed as Pregnenolone
[2] = after 8 weeks of pregnenolone, listed as pregnenolone

CC(=O)[C@H]1CC[C@H]2[C@@H]3CC=C4C[C@@H](O)CC[C@]4(C)[C@H]3CC[C@]12C [PG, pregnenolone]
Serum Androstenedione level (Week 0 (baseline)): 2.93 ± 1.30 ng/mL
Serum Cortisol level (Week 0 (baseline)): 8.08 ± 2.80 μg/100 ml
Serum DHEA level (Week 0 (baseline)): 7.85 ± 5.94 ng/mL
Serum DHEAS level (Week 0 (baseline)): 124.72 ± 86.52 μg/100 ml
Serum PGS (pregnenolone sulfate) level (Week 0 (baseline)): 33.4 ± 18.3 ng/mL
Serum Total testosterone level (Week 0 (baseline)): 302.83 ± 158.53 ng/100 ml
Serum Estradiol level (Week 0 (baseline)): 24.64 ± 6.21 pg/mL
Serum ALLO (allopregnanolone) level (Week 0 (baseline)): 110.7 ± 78.9 pg/mL
Serum Free testosterone level (Week 0 (baseline)): 7.96 ± 1.07 pg/mL
Serum PG (pregnenolone) level (Week 0 (baseline)): 499.9 ± 313.6 pg/mL
Serum Progesterone level (Week 0 (baseline)): 0.38 ± 0.15 ng/mL
Serum Androstenedione level (Week 8): 3.01 ± 4.66 ng/mL
Serum Cortisol level (Week 8): 7.96 ± 3.85 μg/100 ml
Serum DHEA level (Week 8): 6.33 ± 3.26 ng/mL
Serum DHEAS level (Week 8): 144.87 ± 97.30 μg/100 ml
Serum PGS (pregnenolone sulfate) level (Week 8): 94.4 ± 14.3 ng/mL
Serum Total testosterone level (Week 8): 303.08 ± 156.05 ng/100 ml
Serum Estradiol level (Week 8): 25.42 ± 4.73 pg/mL
Serum ALLO (allopregnanolone) level (Week 8): 823.1 ± 528.9 pg/mL
Serum Free testosterone level (Week 8): 7.31 ± 2.04 pg/mL
Serum PG (pregnenolone) level (Week 8): 2096.0 ± 999.4 pg/mL
Serum Progesterone level (Week 8, listed as Pregnenolone): 2.17 ± 0.64 ng/mL
Serum Progesterone level (Week 8, listed as pregnenolone): 2.17 ng/mL
Increase in serum DHEAS levels over baseline (after 8 weeks of pregnenolone): approximately 16%
Increase in serum PGS levels over baseline (after 8 weeks of pregnenolone): tripled
Increase in serum progesterone over baseline (after 8 weeks of pregnenolone): over four-fold
Serum testosterone, free testosterone, cortisol, DHEA, estradiol, or androstenedione levels (listed as Pregnenolone): did not result in downstream elevations
Serum testosterone, free testosterone, cortisol, DHEA, estradiol, or androstenedione levels (listed as pregnenolone): did not increase
Elevation in serum levels of PG over baseline [1]: approximately four-fold elevations
Increase in serum ALLO over baseline [1]: five-fold elevations
Elevation in serum levels of PG over baseline [2]: approximate four-fold increase
Increase in serum ALLO over baseline [2]: five-fold
